Several values for one entry are separate records, joined by “and”; a condition that tells them apart may be missing. Identical values can stand only once. Like-named read-outs stand apart in the source and are kept apart here.
Key:
normal specimens = assay: Free thiol analysis by mBBr labeling, normal specimens; type: cell-based, human; settings: 20 μM TDZD-8
Procedure: C. […] Intracellular thiol levels were assessed by flow cytometry after labeling with 50 μM monobromobimane (molecular probes).

AML progenitor cells = assay: Methylcellulose colony assay, AML; type: cell-based, human; settings: 20 μM TDZD-8, 18 hours before plating, n=11
Procedure: (§1) Cells were then plated at 50,000 cells/ml in Methocult™ GF H4534 (1% methylcellulose in IMDM, 30% FBS, 1% BSA, 10^−4M 2-mercaptoethanol, 2 mM L-glutamine, 50 ng/ml rh stem cell factor, 10 ng/ml rh GM-CSF, 10 ng/ml rh IL-3-Stem Cell Technologies, Vancouver, B.C.) supplemented with 3 units/ml of erythropoietin and 50 ng/ml G-CSF (R&D Systems, Minneapolis, Minn.). Colonies were scored after 10-14 days of culture.

primary AML specimens = assay: Viability of primary AML specimens, Annexin V/7-AAD flow cytometry; type: cell-based, human
Procedure: (§2) The cells were isolated and processed as described. […] All drug treatments were performed in triplicate. […] Total viable cell numbers were determined using a flow cytometric apoptosis assay as described. Briefly, after 18 h of treatment, specimens were labeled with anti-CD34-PE (Becton Dickinson, San Jose, Calif.) for 20 minutes. […] The total number of events collected was 100,000. The percent viable cells was defined as AnnexinV^neg/7-AAD^neg cells on total (ungated) cells and on gates set for CD34^+ populations. • [1] Jordan, C. T., et al., The interleukin-3 receptor alpha chain is a unique marker for human acute myelogenous leukemia stem cells. Leukemia, 2000. 14(10): p. […] Lansdorp, P. M. and W. Dragowska, Long-term erythropoiesis from constant numbers of CD34+ cells in serum-free cultures initiated with highly purified progenitor cells from human bone marrow. […] Guzman, M. L., et al., Nuclear factor-kappaB is constitutively activated in primitive human acute myelogenous leukemia cells. […] 98(8): p.

[1] = test system: plasma membrane localized PKCα and β in primary CD34+ AML and ALL cells; assay: Immunoblot of membrane fractions for PKCα and PKCβ; type: cell-based, human; settings: TDZD-8 for 1 hour
Procedure: Immunoblots. Cells were prepared and analyzed as previously described.^35 Membrane fractions were prepared using mem-PER eukaryotic membrane protein extraction kit as per manufacturer's instructions (Pierce; Rockford, Ill.). Blots were probed with phospho-PKC (pan) (beta II; Ser660), phospho-PKCalpha/betaII (Thr638/641), total PKCα, PKCβ and FLT3 (Santa Cruz Biotechnology, Calif.), Caspase-3 (Cell Signaling technologies; Danvers, Mass.); caspase-8 and PARP (BD bioscience), cleaved PARP (abcam) or anti-actin (AC-15; Sigma) antibodies.

GSK3B (GSK3 beta) = GSK3B (GSK3 beta) (Homo sapiens, UniProt P49841); assay: Kinase assay (single point and titration); type: biochemical; settings: TDZD-8 20 μM
GSK3B (GSK3 beta), sequence (P49841 whole entry): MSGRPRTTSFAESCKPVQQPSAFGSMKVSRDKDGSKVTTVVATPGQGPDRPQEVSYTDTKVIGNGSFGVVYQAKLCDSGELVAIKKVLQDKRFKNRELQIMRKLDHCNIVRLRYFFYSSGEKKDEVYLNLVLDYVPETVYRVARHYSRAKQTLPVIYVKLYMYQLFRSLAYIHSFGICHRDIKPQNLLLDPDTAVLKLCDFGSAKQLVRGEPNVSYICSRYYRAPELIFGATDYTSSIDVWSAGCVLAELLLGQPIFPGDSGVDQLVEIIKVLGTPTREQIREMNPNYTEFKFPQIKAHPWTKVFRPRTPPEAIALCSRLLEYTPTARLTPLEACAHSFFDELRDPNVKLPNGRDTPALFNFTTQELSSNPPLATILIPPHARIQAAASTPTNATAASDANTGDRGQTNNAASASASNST
Procedure: Kinase Assays: Single point and titration assays are performed using protocols (or essentially using protocols) know in the art for kinase activity profiling against a battery of kinase targets, including, for example, those specifically delineated herein. Such assays include, for example, those available from commercial sources, contract research laboratories, and the like.

[2] = test system: phospho-FLT3 in CD34+ AML cells; assay: Phospho-FLT3 flow cytometry, CD34+ population of primary AML; type: cell-based, human; settings: 30 minutes after addition of drug
CDK1/cyclin B = CDK1/cyclin B (Homo sapiens, UniProt P06493); settings: reported; cited from earlier work
CDK1/cyclin B, sequence (P06493 whole entry, species assumed): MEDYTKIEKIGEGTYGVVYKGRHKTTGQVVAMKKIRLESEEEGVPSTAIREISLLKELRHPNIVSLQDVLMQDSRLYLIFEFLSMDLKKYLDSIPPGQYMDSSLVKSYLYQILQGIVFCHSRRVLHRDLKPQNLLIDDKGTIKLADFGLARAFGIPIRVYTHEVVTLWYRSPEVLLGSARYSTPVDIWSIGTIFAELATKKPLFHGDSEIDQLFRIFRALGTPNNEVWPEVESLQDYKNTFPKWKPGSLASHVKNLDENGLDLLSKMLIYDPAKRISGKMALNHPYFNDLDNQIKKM
CDK1/cyclin B, sequence (P14635 whole entry partner, species assumed): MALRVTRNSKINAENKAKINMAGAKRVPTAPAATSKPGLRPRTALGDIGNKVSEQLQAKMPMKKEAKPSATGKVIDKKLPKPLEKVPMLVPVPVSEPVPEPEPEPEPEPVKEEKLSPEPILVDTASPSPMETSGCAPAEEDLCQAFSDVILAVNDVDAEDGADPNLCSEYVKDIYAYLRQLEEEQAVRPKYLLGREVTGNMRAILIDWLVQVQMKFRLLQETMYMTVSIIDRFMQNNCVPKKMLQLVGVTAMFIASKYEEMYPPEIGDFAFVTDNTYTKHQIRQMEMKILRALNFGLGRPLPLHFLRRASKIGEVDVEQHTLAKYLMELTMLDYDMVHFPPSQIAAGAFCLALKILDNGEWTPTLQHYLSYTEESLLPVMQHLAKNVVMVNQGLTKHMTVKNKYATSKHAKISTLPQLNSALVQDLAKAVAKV

[3] = test system: normal specimens (BM, CB, MPB); assay: Viability of normal specimens (BM, CB, MPB), Annexin V/7-AAD; type: cell-based, human; settings: normal specimens
Procedure: as §2

[4] = as above; type: cell-based, human; settings: human; read-out: cell viability relative to untreated controls
Procedure: as §2

bcCML progenitor cells = assay: Methylcellulose colony assay, bcCML; type: cell-based, human; settings: 20 μM TDZD-8, 18 hours before plating, n=3
Procedure: as §1

K-562 = assay: NCI-60 screen; type: cell-based; settings: Homo sapiens
Description: (§3) In contrast the cell viability for normal specimens was 79.5% (n=13).

[5] = test system: Renal cancer, 7 cell lines; assay: NCI-60 screen; type: cell-based; settings: Homo sapiens
Description: as §3

SR = assay: NCI-60 screen; type: cell-based; settings: Homo sapiens
Description: as §3

Melanoma, 8 cell lines = assay: NCI-60 screen; type: cell-based; settings: Homo sapiens
Description: as §3

[6] = test system: Non-small cell lung cancer, 9 cell lines; assay: NCI-60 screen; type: cell-based; settings: Homo sapiens
Description: as §3

[7] = test system: Colon cancer, 7 cell lines; assay: NCI-60 screen; type: cell-based; settings: Homo sapiens
Description: as §3

[8] = test system: Breast cancer, 7 cell lines; assay: NCI-60 screen; type: cell-based; settings: Homo sapiens
Description: as §3

CNS cancer, 6 cell lines = assay: NCI-60 screen; type: cell-based; settings: Homo sapiens
Description: as §3

[9] = test system: Prostate cancer, 2 cell lines; assay: NCI-60 screen; type: cell-based; settings: Homo sapiens
Description: as §3

[10] = test system: Ovarian cancer, 5 cell lines; assay: NCI-60 screen; type: cell-based; settings: Homo sapiens
Description: as §3

HL-60 = assay: NCI-60 screen; type: cell-based; settings: Homo sapiens
Description: as §3

CCRF-CEM = assay: NCI-60 screen; type: cell-based; settings: Homo sapiens
Description: as §3

RPMI-8226 = assay: NCI-60 screen; type: cell-based; settings: Homo sapiens
Description: as §3

[11] = test system: normal CB cells (hematopoietic stem cells); assay: NOD/SCID xenotransplant engraftment of normal CB cells treated in culture; type: in vivo, human; settings: cells cultured 18 hours with 20 μM TDZD-8; n=3; NOD/SCID mice
Procedure: NOD/SCID (NOD.CB17-prdkdc scid/J) mice (Jackson Laboratories, Bar Harbor, Me.) were sub-lethally irradiated with 270 rad using a RadSource™ X-ray irradiator the day before transplantation. Cells to be assayed (AML or normal umbilical cord blood—CB) were injected via tail vein (5-10 million cells) in a final volume of 0.2 ml of PBS with 0.5% FBS. After 6-8 weeks, animals were sacrificed and BM was isolated.

[12] = read-out: Log10 GI50 (converted)

In the case of Cn1sc(=O)n(Cc2ccccc2)c1=O [TDZD-8, 4-benzyl-2-methyl-1,2,4-thiadiazolidine-3,5-dione], the “mBBr staining (free thiol groups)” value (normal specimens) is reported as “only slight changes in mBBr staining”, the “CFU, normalized to untreated controls” value (AML progenitor cells) is reported as 7.3% and the viability at 20 µM (primary AML specimens; Homo sapiens, 24 h, read-out: mean viability relative to untreated controls) is reported as 15%. The “treatment time that may also be effective” value (primary AML specimens; additional preliminary data, not shown) was at most 5 min, the “mean time to achieve ≧50% cell death” value (primary AML specimens; bulk leukemia blast populations, 17 primary specimens) was 2 h and the Rapid kinetics (primary AML specimens; cell death kinetics) was “Yes”. For the same compound, the “time within which most toxicity is evident” value (primary AML specimens; leukemia cells) was 1 to 6 h, the “Cytotoxic AML” value (primary AML specimens; primary AML specimens) was “Yes” and the “time of TDZD-8 exposure at which cell death was frequently evident” value (primary AML specimens; primary AML, bcCML, ALL and CLL specimens) was at most 2 h. For the same compound, the viability (primary AML specimens; three of 17 specimens, within 30 minutes) was “below 30%”, the “plasma membrane localized PKCα and β” value [1] was “decreases” and the “% Inhibition mean” value (GSK3B (GSK3 beta)) was 99%. For the same compound, the inhibition at 20 µM (GSK3B (GSK3 beta)) was 98%, the “inhibition of FLT3 phosphorylation” value [2] was ~30% and 31% and the IC50 (CDK1/cyclin B) was over 100 µM. For the same compound, the “Cytotoxic Normal” value [3] was “No”, the viability at 24 h, 20 μM [4] was 79.5% and the “CFU, normalized to untreated controls” value (bcCML progenitor cells) was 16.1%. For the same compound, the GI50 (K-562; K562, read-out: GI50) was 6.5 µM, the GI50 (K-562; K562, read-out: Log10 GI50 (converted)) was 6.46 µM and the GI50 ([5]; read-out: GI50) was over 100 µM. It also gave a GI50 [5, 12] of over 100 µM, a GI50 (SR; read-out: GI50) of 0.01 µM and a GI50 (SR; [12]) of 0.01 µM. It also gave a GI50 (Melanoma, 8 cell lines; read-out: GI50) of over 100 µM, a GI50 (Melanoma, 8 cell lines; [12]) of over 100 µM and a GI50 ([6]; read-out: GI50) of over 100 µM. For the same compound, the GI50 [6, 12] was over 100 µM, the GI50 ([7]; read-out: GI50) was over 100 µM and the GI50 [7, 12] was over 100 µM. The GI50 ([8]; read-out: GI50) was over 100 µM, the GI50 [8, 12] was over 100 µM and the GI50 (CNS cancer, 6 cell lines; read-out: GI50) was over 100 µM. For the same compound, the GI50 (CNS cancer, 6 cell lines; [12]) was over 100 µM, the GI50 ([9]; read-out: GI50) was over 100 µM and the GI50 [9, 12] was over 100 µM. For the same compound, the GI50 ([10]; read-out: GI50) was over 100 µM, the GI50 [10, 12] was over 100 µM and the GI50 (HL-60; read-out: GI50) was 0.2 µM. The GI50 (HL-60; [12]) was 0.234 µM, the GI50 (CCRF-CEM; read-out: GI50) was 11.5 µM and the GI50 (CCRF-CEM; [12]) was 11.5 µM. For the same compound, the GI50 (RPMI-8226; read-out: GI50) was 23.4 µM, the GI50 (RPMI-8226; [12]) was 23.4 µM and the “effect on the engraftment of normal specimens” value [11] was “little to no effect”.

Reference: patent publication US9180118B2, “Thiadiazolidinone derivatives” (University of Rochester, priority 2006, dated 2015)
